Earlier results in patent US7232435B2, “Delivery of a sympatholytic cardiovascular agent to the central nervous system to counter heart failure and pathologies associated with heart failure” (Medtronic, Inc., priority 2004, dated 2007).
Structures can show the parent of a compound that is named as a salt.

Tests used:
[1] = bolus intravenous injection
[2] = oral or transdermal
[3] = intrathecal delivery

Compound	autonomic effects (sympathetic outflow, vagal tone, baroreceptor reflex sensitivity) [1]	hemodynamic effects (heart rate, preload, afterload, pulmonary artery and right atrial pressure) [1]	time of peak effects [1]	major side effects [2]	undesirable side effects [3]
Clc1cccc(Cl)c1N=C1NCCN1 [clonidine HCl]	decreased sympathetic outflow, increased vagal tone and sensitivity of the baroreceptor reflex	Reductions were observed in heart rate, left ventricular filling pressure (preload), mean systemic arterial pressure (afterload), mean pulmonary artery pressure and right atrial pressure	5 to 20 min	–	–
Clc1cccc(Cl)c1N=C1NCCN1 [clonidine, 2-[(2,6-dichlorophenyl)amino]-2-imidazoline]	–	–	–	sedation and dry mouth	Abnormally low blood pressure (hypotension) and bradycardia
